Source: ChEMBL document CHEMBL1125178, “Electrophilic gamma-lactone kappa-opioid receptor probes. Analogues of 2'-hydroxy-2-tetrahydrofurfuryl-5,9-dimethyl-6,7-benzomorphan diastereomers” (J Med Chem, 1991)

Tests used:
[1] = Displacement of [3H]bremazocine from opioid receptor of guinea pig membrane; parameters: species or system Cavia porcellus
[2] = target: Kappa-type opioid receptor (Cavia porcellus, UniProt P41144); assay: Displacement of [3H]bremazocine from opioid receptor kappa of guinea pig membrane.
[3] = target: Opioid receptors; mu/kappa/delta (Homo sapiens, UniProt P41145+P41143+P35372); assay: Displacement of 0.5 nM [3H]bremazocine from opioid receptor sites in guinea pig membranes; assay type: cell membranes, Cavia porcellus; details: target entry is the homologue from another species

Kappa-type opioid receptor, sequence (P41144 whole entry): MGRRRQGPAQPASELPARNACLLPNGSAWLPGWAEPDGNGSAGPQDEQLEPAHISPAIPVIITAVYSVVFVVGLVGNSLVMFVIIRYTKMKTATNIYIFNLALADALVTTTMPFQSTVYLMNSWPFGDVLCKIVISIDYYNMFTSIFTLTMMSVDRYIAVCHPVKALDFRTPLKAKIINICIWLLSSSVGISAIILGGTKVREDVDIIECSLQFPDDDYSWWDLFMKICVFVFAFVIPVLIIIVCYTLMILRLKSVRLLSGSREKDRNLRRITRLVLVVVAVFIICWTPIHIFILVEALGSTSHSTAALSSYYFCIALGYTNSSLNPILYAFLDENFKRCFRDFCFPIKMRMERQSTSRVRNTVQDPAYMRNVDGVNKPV

| SMILES | IC50 [1] | IC50 [2] | IC50 [3] |
| --- | --- | --- | --- |
| C[C@H]1[C@H]2Cc3ccc(O)cc3[C@]1(C)CCN2Cc1ccco1 | 0.0068 µM | 0.0057 µM |  |
| C=C1C[C@@H](CN2CC[C@@]3(C)c4cc(O)ccc4C[C@H]2[C@H]3C)OC1=O |  |  | 1.3 µM |
| C=CCN1CC[C@]23c4c5ccc(O)c4O[C@H]2C(=O)CC[C@@]3(O)[C@H]1C5 [NALOXONE] | 0.023 µM |  |  |
| CC[C@H]1[C@H]2Cc3ccc(O)cc3[C@@]1(CC)CCN2Cc1ccoc1 | 0.0029 µM | 0.0016 µM |  |
| C=C1C[C@H](CN2CC[C@]3(C)c4cc(O)ccc4C[C@@H]2[C@@H]3C)OC1=O | > 3 µM |  |  |
| C[C@H]1[C@H]2Cc3ccc(O)cc3[C@@]1(C)CCN2C[C@@H]1CCCO1 | 0.0023 µM | 0.0017 µM |  |
| C[C@H]1[C@H]2Cc3ccc(O)cc3[C@@]1(C)CCN2C[C@H]1CCCO1 | 0.084 µM | 0.07 µM |  |
| C[C@H]1[C@H]2Cc3ccc(O)cc3[C@@]1(C)CCN2C[C@H]1C=CC(=O)O1 | 0.089 µM | 0.074 µM |  |
| O=C1CC[C@@]2(O)[C@H]3Cc4ccc(O)c5c4[C@@]2(CCN3CC2CC2)[C@H]1O5 [NALTREXONE] | 0.0057 µM |  |  |
| C[C@H]1[C@H]2Cc3ccc(O)cc3[C@@]1(C)CCN2C[C@H]1CCC(=O)O1 | 0.62 µM | 0.4 µM |  |
| C=C1C[C@@H](CN2CC[C@]3(C)c4cc(O)ccc4C[C@@H]2[C@@H]3C)OC1=O | 0.38 µM | 0.4 µM |  |
| C[C@@H]1[C@@H]2Cc3ccc(O)cc3[C@]1(C)CCN2C[C@@H]1CCCO1 |  |  | 1 µM |
| C[C@H]1[C@H]2Cc3ccc(O)cc3[C@@]1(C)CCN2C[C@@H]1CCC(=O)O1 | 0.012 µM | 0.0073 µM |  |
| C=C1C[C@H](CN2CC[C@@]3(C)c4cc(O)ccc4C[C@H]2[C@H]3C)OC1=O | 1.8 µM |  |  |
| CC[C@@H]1[C@@H]2Cc3ccc(O)cc3[C@]1(CC)CCN2Cc1ccoc1 | 2.2 µM |  |  |
| C[C@H]1[C@H]2Cc3ccc(O)cc3[C@@]1(C)CCN2C[C@@H]1C=CC(=O)O1 | 0.0074 µM | 0.0054 µM |  |
